The data set concerns cynomologous monkey PGP. The data set can be described thus: Polarization of vinblastine transport across cynomologous monkey PGP transfected LLC-PK1 cell monolayers in Transwells. Format: cell-based, cynomologous monkey (Macaca fascicularis). The note with it: PGP transfected cells, relative to control cells; vinblastine (0.1 μM) transport in Transwells.

The structures appear in SMILES notation.

Text: Cynomologous monkey PGP cDNA (SEQ ID NO:3) is introduced into a clonal population of LLC-PK 1 cells in a vector that confers resistance to hygromycin B. LLC-PK1 cells are obtained from the American Type Culture Collections and are propagated in Medium 199 supplemented to 7% with fetal bovine serum. LLC-PK1 cells are recloned prior to transfection in order to assure homogeneity of the cell population. Briefly, cynomologous monkey PGP cDNA is incorporated into the p222CMV vector. […] The PGP cDNA is under the control of the cytomegalovirus (CMV) immediate early promoter. […] Expression of PGP is measured by the polarization of vinblastine (0.1 μM) transport in Transwells™.
LLC-PK1 cell based transport studies are conducted in 24 well Transwells™(Corning Costar, Catalog number 3415). […] Transport is measured under sink conditions in both the apical to basolateral (A to B) and basolateral to apical (B to A) directions. […] Quantitation of the amount of compound transported is by liquid scintillation counting (vinblastine) or HPLC with UV or mass spectrometric detection.
Functional expression of cynomologous monkey PGP is measured by the polarization of transport of vinblastine.

With `CC[C@]1(O)C[C@@H]2CN(CCc3c([nH]c4ccccc34)[C@@](C(=O)OC)(c3cc4c(cc3OC)N(C)[C@H]3[C@@](O)(C(=O)OC)[C@H](OC(C)=O)[C@]5(CC)C=CCN6CC[C@]43[C@@H]65)C2)C1` [vinblastine], the “B to A/A to B ratio” value is recorded as “much higher ratio”.

The values above are taken from patent publication US6617450B1, “P-glycoproteins and uses thereof” (Becton Dickinson and Company, priority 1999, dated 2003).
